{"source": "paper PMC12621200", "about": "“Giving an Enzyme Scissors: Serotonin Derivatives as Potent Organocatalytic Switches for DNA Repair Enzyme OGG1” (Journal of Medicinal Chemistry, 2025)", "target": "T1, OGG1 (Homo sapiens, UniProt O15527)", "T1 construct": "made in house", "T1 sequence (O15527 whole entry)": "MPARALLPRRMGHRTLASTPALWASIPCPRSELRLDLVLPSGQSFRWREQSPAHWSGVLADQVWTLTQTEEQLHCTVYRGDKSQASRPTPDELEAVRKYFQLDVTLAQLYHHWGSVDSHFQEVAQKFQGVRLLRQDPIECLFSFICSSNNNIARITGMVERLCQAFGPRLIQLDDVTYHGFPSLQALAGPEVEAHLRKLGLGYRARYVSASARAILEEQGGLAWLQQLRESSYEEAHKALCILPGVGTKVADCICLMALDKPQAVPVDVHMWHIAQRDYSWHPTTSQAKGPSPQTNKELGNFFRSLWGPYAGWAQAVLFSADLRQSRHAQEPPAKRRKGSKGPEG", "experiment": "Biochemical fluorescence (fluorophore-quencher) assay of OGG1 incision rate, 8-oxoA substrate", "details": "for AC50 / AC50 (CI95%): concentration giving 50% of the incision rate of OGG1 with APE1 (2 nM) control; for AC50: read-out: AC50 (CI95%); call rule not given here"}
{"smiles": "NCCc1c(-c2cccnc2)[nH]c2ccccc12", "note": "[Compound 1, 2-(2-(Pyridin-3-yl)-1H-indol-3-yl)-ethan-1-amine]", "values": [{"measurement": "AC50", "value": 4.1, "unit": "µM"}]}
{"smiles": "Cc1ccc2[nH]c(-c3cccnc3)c(CCN)c2c1", "note": "[Compound 2, 2-(5-Methyl-2-(pyridin-3-yl)-1H-indol-3-yl)-ethan-1-amine]", "values": [{"measurement": "AC50 (CI95%)", "value": "inactive"}]}
{"smiles": "COc1ccc2[nH]c(-c3cccnc3)c(CCN)c2c1", "note": "[Compound 3, 2-(5-Methoxy-2-(pyridin-3-yl)-1H-indol-3-yl)-ethan-1-amine]", "values": [{"measurement": "AC50 (CI95%)", "value": "inactive"}]}
{"smiles": "NCCc1c(-c2cccnc2)[nH]c2ccc(Cl)cc12", "note": "[Compound 4, 2-(5-Chloro-2-(pyridin-3-yl)-1H-indol-3-yl)-ethan-1-amine]", "values": [{"measurement": "AC50 (CI95%)", "value": "inactive"}]}
{"smiles": "Cc1cccc2c(CCN)c(-c3cccnc3)[nH]c12", "note": "[Compound 5, 2-(7-Methyl-2-(pyridin-3-yl)-1H-indol-3-yl)-ethan-1-amine]", "values": [{"measurement": "AC50 (CI95%)", "value": "inactive"}]}
{"smiles": "NC(Cc1c(-c2cccnc2)[nH]c2ccccc12)C(=O)O", "note": "(stereo not shown) [Compound 6, 2-Amino-3-(2-(pyridin-3-yl)-1H-indol-3-yl)-propanoic Acid]", "values": [{"measurement": "OGG1 activation, SAR result in words", "value": "abolished activity"}, {"measurement": "AC50 (CI95%)", "value": "inactive"}]}
{"smiles": "NCCc1c(-c2ccccc2)[nH]c2ccccc12", "note": "[Compound 7, 2-Phenyltryptamine]", "values": [{"measurement": "OGG1 activation, SAR result in words", "value": "complete loss of activity"}, {"measurement": "AC50 (CI95%)", "value": "inactive"}]}
{"smiles": "NCCc1c(-c2ccccc2)[nH]c2ccc(O)cc12", "note": "[Compound 8, 5-Hydroxy-2-phenyltryptamine]", "values": [{"measurement": "OGG1 activation, SAR result in words", "value": "showed potency"}, {"measurement": "AC50", "value": 4, "unit": "µM"}]}
{"smiles": "NCCc1c(-c2ccccc2)[nH]c2cc(F)ccc12", "note": "[Compound 9, 6-Fluoro-2-phenyltryptamine]", "values": [{"measurement": "AC50 (CI95%)", "value": "inactive"}]}
{"smiles": "c1cncc(-c2cc3ccccc3[nH]2)c1", "note": "[Compound 10, 2-(Pyridin-3-yl)-1H-indole]", "values": [{"measurement": "AC50", "value": 1.7, "unit": "µM"}]}
{"smiles": "Cc1ccc2[nH]c(-c3cccnc3)cc2c1", "note": "[Compound 11, 5-Methyl-2-(pyridin-3-yl)-1H-indole]", "values": [{"measurement": "AC50", "value": 5.7, "unit": "µM"}]}
{"smiles": "Fc1ccc2[nH]c(-c3cccnc3)cc2c1", "note": "[Compound 12, 5-Fluoro-2-(pyridin-3-yl)-1H-indole]", "values": [{"measurement": "AC50", "value": 1.9, "unit": "µM"}]}
{"smiles": "Brc1ccc2[nH]c(-c3cccnc3)cc2c1", "note": "[Compound 13, 5-Bromo-2-(pyridin-3-yl)-1H-indole]", "values": [{"measurement": "AC50", "value": 1, "unit": "µM"}]}
{"smiles": "COc1ccc2[nH]c(-c3cccnc3)cc2c1", "note": "[Compound 14, 5-Methoxy-2-(pyridin-3-yl)-1H-indole]", "values": [{"measurement": "AC50", "value": 13, "unit": "µM"}]}
{"smiles": "Oc1ccc2[nH]c(-c3cccnc3)cc2c1", "note": "[Compound 15, 2-(Pyridin-3-yl)-1H-indol-5-ol]", "values": [{"measurement": "AC50", "value": 6, "unit": "µM"}]}
{"smiles": "Fc1cncc(-c2cc3ccccc3[nH]2)c1", "note": "[Compound 16, 2-(5-Fluoropyridin-3-yl)-1H-indole]", "values": [{"measurement": "AC50", "value": 1.4, "unit": "µM"}]}
{"smiles": "Fc1ccc(-c2cc3ccccc3[nH]2)cn1", "note": "[Compound 17, 2-(6-Fluoropyridin-3-yl)-1H-indole]", "values": [{"measurement": "AC50 (CI95%)", "value": "inactive"}]}
{"smiles": "Nc1cncc(-c2cc3ccccc3[nH]2)c1", "note": "[Compound 18]", "values": [{"measurement": "AC50", "value": "> 100", "unit": "µM"}]}
{"smiles": "Nc1ccc(-c2cc3ccccc3[nH]2)cn1", "note": "[Compound 19, 5-(1H-Indol-2-yl)-pyridin-2-amine]", "values": [{"measurement": "AC50", "value": 9.3, "unit": "µM"}]}
{"smiles": "Oc1cncc(-c2cc3ccccc3[nH]2)c1", "note": "[Compound 20, 5-(1H-Indol-2-yl)-pyridin-3-ol]", "values": [{"measurement": "AC50", "value": 2.8, "unit": "µM"}]}
{"smiles": "Oc1ccc(-c2cc3ccccc3[nH]2)cn1", "note": "[Compound 21, 5-(1H-Indol-2-yl)-pyridin-2-ol]", "values": [{"measurement": "AC50 (CI95%)", "value": "inactive"}]}
{"smiles": "Clc1ccc(-c2cc3ccccc3[nH]2)cn1", "note": "[Compound 22, 2-(6-Chloropyridin-3-yl)-1H-indole]", "values": [{"measurement": "AC50 (CI95%)", "value": "inactive"}]}
{"smiles": "Cc1ccc(-c2cc3ccccc3[nH]2)cn1", "note": "[Compound 23, 2-(6-Methylpyridin-3-yl)-1H-indole]", "values": [{"measurement": "AC50", "value": 14, "unit": "µM"}]}
{"smiles": "c1ccc2[nH]c(-c3ccncc3)cc2c1", "note": "[Compound 24, (2-Pyridin-4-yl)-1H-indole]", "values": [{"measurement": "OGG1 activation, SAR result in words", "value": "not tolerated"}, {"measurement": "AC50 (CI95%)", "value": "inactive"}]}
{"smiles": "c1ccc2[nH]c(-c3cncnc3)cc2c1", "note": "[Compound 25, 2-(Pyrimidin-5-yl)-1H-indole]", "values": [{"measurement": "OGG1 activation, SAR result in words", "value": "not tolerated"}, {"measurement": "AC50 (CI95%)", "value": "inactive"}]}
{"smiles": "c1ccc2[nH]c(-c3cnc4[nH]ccc4c3)cc2c1", "note": "[Compound 26, 5-(1H-Indol-2-yl)-1H-pyrrolo[2,3-b]-pyridine]", "values": [{"measurement": "AC50", "value": 1.4, "unit": "µM"}]}
{"smiles": "c1ccc2ncc(-c3cc4ccccc4[nH]3)cc2c1", "note": "[Compound 27, 3-(1H-Indol-2-yl)-quinoline]", "values": [{"measurement": "OGG1 activation, SAR result in words", "value": "not tolerated"}, {"measurement": "AC50 (CI95%)", "value": "inactive"}]}
{"smiles": "c1cncc(-c2cc3ccccc3o2)c1", "note": "[Compound 28, 3-(Benzofuran-2-yl)-pyridine]", "values": [{"measurement": "AC50", "value": 4.1, "unit": "µM"}]}
{"smiles": "NCCc1c(-c2cccnc2)[nH]c2cc(O)ccc12", "note": "[Compound 31, 3-(2-Aminoethyl)-2-(pyridin-3-yl)-1H-indol-6-ol]", "values": [{"measurement": "AC50 (CI95%)", "value": "inactive"}]}
{"smiles": "NCCc1c(-c2cccnc2)[nH]c2c(O)cccc12", "note": "[Compound 32, 3-(2-Aminoethyl)-2-(pyridin-3-yl)-1H-indol-7-ol]", "values": [{"measurement": "AC50 (CI95%)", "value": "inactive"}]}
{"smiles": "NCCc1c(-c2cccnc2)[nH]c2cccc(O)c12", "note": "[Compound 33, 3-(2-Aminoethyl)-2-(pyridin-3-yl)-1H-indol-4-ol]", "values": [{"measurement": "AC50 (CI95%)", "value": "inactive"}]}
{"smiles": "NCCc1c(-c2cccnc2)[nH]c2ccc(F)cc12", "note": "[Compound 34, 2-(5-Fluoro-2-(pyridin-3-yl)-1H-indol-3-yl)-ethan-1-amine]", "values": [{"measurement": "OGG1 activation, SAR result in words", "value": "tolerated"}, {"measurement": "AC50", "value": 6.4, "unit": "µM"}]}
{"smiles": "NCCc1c(-c2cccnc2)[nH]c2cc(F)ccc12", "note": "[Compound 35, 2-(6-Fluoro-2-(pyridin-3-yl)-1H-indol-3-yl)-ethan-1-amine]", "values": [{"measurement": "OGG1 activation, SAR result in words", "value": "tolerated"}, {"measurement": "AC50", "value": 5.3, "unit": "µM"}]}
{"smiles": "NCCc1c(-c2cccnc2)[nH]c2ccc(N)cc12", "note": "[Compound 36, 3-(2-Aminoethyl)-2-(pyridin-3-yl)-1H-indol-5-amine]", "values": [{"measurement": "OGG1 activation, SAR result in words", "value": "not tolerated"}, {"measurement": "AC50 (CI95%)", "value": "inactive"}]}
{"smiles": "NCCc1c(-c2cccnc2)[nH]c2ccc(C(=O)O)cc12", "note": "[Compound 37, 3-(2-Aminoethyl)-2-(pyridin-3-yl)-1H-indole-5-carboxylic Acid]", "values": [{"measurement": "OGG1 activation, SAR result in words", "value": "not tolerated"}, {"measurement": "AC50 (CI95%)", "value": "inactive"}]}
{"smiles": "NCc1c(-c2cccnc2)[nH]c2ccc(O)cc12", "note": "[Compound 39, 3-(Aminomethyl)-2-(pyridin-3-yl)-1H-indol-5-ol]", "values": [{"measurement": "OGG1 activation, SAR result in words", "value": "not tolerated"}, {"measurement": "AC50 (CI95%)", "value": "inactive"}]}
{"smiles": "NCCCc1c(-c2cccnc2)[nH]c2ccc(O)cc12", "note": "[Compound 40, 3-(3-Aminopropyl)-2-(pyridin-3-yl)-1H-indol-5-ol]", "values": [{"measurement": "OGG1 activation, SAR result in words", "value": "not tolerated"}, {"measurement": "AC50 (CI95%)", "value": "inactive"}]}
{"smiles": "NCCc1c(-c2ccccn2)[nH]c2ccc(O)cc12", "note": "[Compound 42, 3-(2-Aminoethyl)-2-(pyridin-2-yl)-1H-indol-5-ol]", "values": [{"measurement": "OGG1 activation, SAR result in words", "value": "lost activity"}, {"measurement": "AC50 (CI95%)", "value": "inactive"}]}
{"smiles": "NCCc1c(-c2ccncc2)[nH]c2ccc(O)cc12", "note": "[Compound 43, 3-(2-Aminoethyl)-2-(pyridin-4-yl)-1H-indol-5-ol]", "values": [{"measurement": "OGG1 activation, SAR result in words", "value": "lost activity"}, {"measurement": "AC50 (CI95%)", "value": "inactive"}]}
{"smiles": "NCCc1c(-c2cncnc2)[nH]c2ccc(O)cc12", "note": "[Compound 44, 3-(2-Aminoethyl)-2-(pyrimidin-5-yl)-1H-indol-5-ol]", "values": [{"measurement": "OGG1 activation, SAR result in words", "value": "slight increase in activity"}, {"measurement": "AC50", "value": 0.25, "unit": "µM"}]}
{"smiles": "NCCc1c(-c2cncs2)[nH]c2ccc(O)cc12", "note": "[Compound 45, 3-(2-Aminoethyl)-2-(thiazol-5-yl)-1H-indol-5-ol]", "values": [{"measurement": "OGG1 activation, SAR result in words", "value": "slight increase in activity"}, {"measurement": "AC50", "value": 0.4, "unit": "µM"}]}
{"smiles": "CNCCc1c(-c2cccnc2)[nH]c2ccc(O)cc12", "note": "[Compound 46, 3-(2-(Methylamino)-ethyl)-2-(pyridin-3-yl)-1H-indol-5-ol]", "values": [{"measurement": "AC50", "value": 0.29, "unit": "µM"}]}
{"smiles": "OCCc1c(-c2cccnc2)[nH]c2ccc(O)cc12", "note": "[Compound 47, 3-(2-Hydroxyethyl)-2-(pyridin-3-yl)-1H-indol-5-ol]", "values": [{"measurement": "AC50", "value": 8.7, "unit": "µM"}, {"measurement": "decrease of activity", "setting": "ethanol derivative versus amine 30", "value": "~10", "unit": "fold"}]}
{"smiles": "Cn1c(-c2cccnc2)c(CCN)c2cc(O)ccc21", "note": "[Compound 48, 3-(2-Aminoethyl)-1-methyl-2-(pyridin-3-yl)-1H-indol-5-ol]", "values": [{"measurement": "OGG1 activation, SAR result in words", "value": "attenuated activity"}, {"measurement": "AC50 (CI95%)", "value": "inactive"}]}
{"smiles": "NCCc1cncc(-c2cc3cc(O)ccc3[nH]2)c1", "note": "[Compound 49, 2-(5-(2-Aminoethyl)-pyridin-3-yl)-1H-indol-5-ol]", "values": [{"measurement": "AC50 (CI95%)", "value": "inactive"}]}
{"smiles": "NCCc1[nH]c2ccccc2c1-c1cccnc1", "note": "[Compound 50, 2-(3-(Pyridin-3-yl)-1H-indol-2-yl)-ethan-1-amine]", "values": [{"measurement": "AC50", "value": 28, "unit": "µM"}]}
{"smiles": "NCCc1[nH]c2ccc(O)cc2c1-c1cccnc1", "note": "[Compound 51, 2-(2-Aminoethyl)-3-(pyridin-3-yl)-1H-indol-5-ol]", "values": [{"measurement": "AC50 (CI95%)", "value": "inactive"}]}
{"smiles": "NCCc1[nH]c2cc(F)c(O)cc2c1-c1cccnc1", "note": "[Compound 52, 2-(2-Aminoethyl)-6-fluoro-3-(pyridin-3-yl)-1H-indol-5-ol]", "values": [{"measurement": "OGG1 activation, SAR result in words", "value": "some residual activity"}, {"measurement": "AC50", "value": 8.5, "unit": "µM"}]}
{"smiles": "NCCc1[nH]c2ccc(O)cc2c1-c1cncnc1", "note": "[Compound 53, 2-(2-Aminoethyl)-3-(pyrimidin-5-yl)-1H-indol-5-ol]", "values": [{"measurement": "OGG1 activation, SAR result in words", "value": "some residual activity"}, {"measurement": "AC50", "value": 12, "unit": "µM"}]}
{"smiles": "O=C(O)c1cccc(NC(C(=O)c2ccccc2)c2ccccc2)c1", "note": "(stereo not shown) [NSC 4232]", "values": [{"measurement": "AC50 (μM)", "setting": "biochemical assay of virtual screening hits (NCI samples), Table S1", "value": "inactive"}]}
